Measurements as given in PubChem BioAssay AID1919016 (Molecular Pharmacology Branch, DTP, NCI, 2023).

Tested on: NCI-H196 complex spheroid growth, percent test/control
Assay: Anticancer human tumor NCI-H196 cell line growth inhibition [AhR];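 note: seven days of drug exposure starting three days after plating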;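 for viability, T/C: 100% = DMSO vehicle control wells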
Conditions: for IC50: curve of first compound; for viability, T/C: stronger effect = lower value
In short: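 Complex tumor spheroids co-cultured with HUVEC and human MSC stroma; AhR antagonists tested in combination with standard-of-care and investigational agents. Top concentration at or near clinical Cmax (else 10 microM), half-log dilutions; growth expressed as percent test/control.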

[1] = second compound 0.1 µM, first compound 0.000949 µM
[2] = second compound 0.1 µM, first compound 0.003 µM
[3] = second compound 0.1 µM, first compound 0.00949 µM
[4] = second compound 0.1 µM, first compound 0.03 µM
[5] = second compound 0.1 µM, first compound 0.0949 µM
[6] = second compound 0.1 µM, first compound 0.3 µM
[7] = second compound 0.316 µM, first compound 0.000949 µM
[8] = second compound 0.316 µM, first compound 0.003 µM
[9] = second compound 0.316 µM, first compound 0.00949 µM
[10] = second compound 0.316 µM, first compound 0.03 µM
[11] = second compound 0.316 µM, first compound 0.0949 µM
[12] = second compound 0.316 µM, first compound 0.3 µM
[13] = second compound 1 µM, first compound 0.000949 µM
[14] = second compound 1 µM, first compound 0.003 µM
[15] = second compound 1 µM, first compound 0.00949 µM
[16] = second compound 1 µM, first compound 0.03 µM
[17] = second compound 1 µM, first compound 0.0949 µM
[18] = second compound 1 µM, first compound 0.3 µM
[19] = second compound 3.16 µM, first compound 0.000949 µM
[20] = second compound 3.16 µM, first compound 0.003 µM
[21] = second compound 3.16 µM, first compound 0.00949 µM
[22] = second compound 3.16 µM, first compound 0.03 µM
[23] = second compound 3.16 µM, first compound 0.0949 µM
[24] = second compound 3.16 µM, first compound 0.3 µM
[25] = second compound 10 µM, first compound 0.000949 µM
[26] = second compound 10 µM, first compound 0.003 µM
[27] = second compound 10 µM, first compound 0.00949 µM
[28] = second compound 10 µM, first compound 0.03 µM
[29] = second compound 10 µM, first compound 0.0949 µM
[30] = second compound 10 µM, first compound 0.3 µM

`CC(C)CC(NC(=O)C(Cc1ccccc1)NC(=O)c1cnccn1)B(O)O` (stereo not given) + Cc1ccccc1N=Nc1ccc(NC(=O)c2ccnn2C)c(C)c1 was tested, and the IC50 (second compound 0.1 µM) was 14.4 nM, the IC50 (second compound 0.316 µM) was 15.6 nM and the IC50 (second compound 1 µM) was 15.8 nM. It also gave an IC50 (second compound 3.16 µM) of 15.9 nM, an IC50 (second compound 10 µM) of 16.8 nM and a viability, T/C [1] of 97.6%. For the same molecule, the viability, T/C [2] was 101%, the viability, T/C [3] was 74.9% and the viability, T/C [4] was 6.41%. The viability, T/C [5] was 4.21%, the viability, T/C [6] was 5.04% and the viability, T/C [7] was 93.6%. It also gave a viability, T/C [8] of 96.4%, a viability, T/C [9] of 83.1% and a viability, T/C [10] of 6.9%. The viability, T/C [11] was 4.16%, the viability, T/C [12] was 3.98% and the viability, T/C [13] was 90.8%. The viability, T/C [14] was 101%, the viability, T/C [15] was 83% and the viability, T/C [16] was 8.93%. The viability, T/C [17] was 4.78%, the viability, T/C [18] was 6.96% and the viability, T/C [19] was 97.4%. The viability, T/C [20] was 95.8%, the viability, T/C [21] was 83.8% and the viability, T/C [22] was 8.44%. For the same molecule, the viability, T/C [23] was 3.34%, the viability, T/C [24] was 3.4% and the viability, T/C [25] was 89.2%. The viability, T/C [26] was 90.5%, the viability, T/C [27] was 85.1% and the viability, T/C [28] was 14.6%. The viability, T/C [29] was 8.98% and the viability, T/C [30] was 5.84%.

With `CCc1c2c(nc3ccc(O)cc13)-c1cc3c(c(=O)n1C2)COC(=O)[C@]3(O)CC` + Cc1ccccc1N=Nc1ccc(NC(=O)c2ccnn2C)c(C)c1 the IC50 (second compound 0.1 µM) was greater than 300 nM, the IC50 (second compound 0.316 µM) was greater than 300 nM and the IC50 (second compound 1 µM) was greater than 300 nM. It also gave an IC50 (second compound 3.16 µM) greater than 300 nM, an IC50 (second compound 10 µM) greater than 300 nM and a viability, T/C [1] of 97%. For the same molecule, the viability, T/C [2] was 101%, the viability, T/C [3] was 103% and the viability, T/C [4] was 95.3%. The viability, T/C [5] was 93.3%, the viability, T/C [6] was 81.2% and the viability, T/C [7] was 96.3%. The viability, T/C [8] was 103%, the viability, T/C [9] was 106% and the viability, T/C [10] was 89.7%. For the same molecule, the viability, T/C [11] was 89.2%, the viability, T/C [12] was 85.2% and the viability, T/C [13] was 89.8%. For the same molecule, the viability, T/C [14] was 106%, the viability, T/C [15] was 93.8% and the viability, T/C [16] was 100%. The viability, T/C [17] was 99.2%, the viability, T/C [18] was 70.7% and the viability, T/C [19] was 89.4%. For the same molecule, the viability, T/C [20] was 91.3%, the viability, T/C [21] was 103% and the viability, T/C [22] was 88.9%. It also gave a viability, T/C [23] of 82.7%, a viability, T/C [24] of 74.3% and a viability, T/C [25] of 89%. The viability, T/C [26] was 108%, the viability, T/C [27] was 93.3% and the viability, T/C [28] was 94.9%. The viability, T/C [29] was 96% and the viability, T/C [30] was 76.1%.

`Nc1ccccc1NC(=O)c1ccc(CNC(=O)OCc2cccnc2)cc1` + Cc1ccccc1N=Nc1ccc(NC(=O)c2ccnn2C)c(C)c1 was tested, and the IC50 (second compound 0.1 µM) was 787 nM, the IC50 (second compound 0.316 µM) was 856 nM and the IC50 (second compound 1 µM) was 992 nM. The IC50 (second compound 3.16 µM) was 765 nM, the IC50 (second compound 10 µM) was 1200 nM and the viability, T/C (second compound 0.1 µM, first compound 0.0316 µM) was 88%. It also gave a viability, T/C (second compound 0.1 µM, first compound 0.1 µM) of 78.3%, a viability, T/C (second compound 0.1 µM, first compound 0.316 µM) of 71.9% and a viability, T/C (second compound 0.1 µM, first compound 1 µM) of 44.8%. The viability, T/C (second compound 0.1 µM, first compound 3.16 µM) was 15%, the viability, T/C (second compound 0.1 µM, first compound 10 µM) was 0.96% and the viability, T/C (second compound 0.316 µM, first compound 0.0316 µM) was 85%. For the same molecule, the viability, T/C (second compound 0.316 µM, first compound 0.1 µM) was 83.9%, the viability, T/C (second compound 0.316 µM, first compound 0.316 µM) was 73.3% and the viability, T/C (second compound 0.316 µM, first compound 1 µM) was 44.9%. For the same molecule, the viability, T/C (second compound 0.316 µM, first compound 3.16 µM) was 18.5%, the viability, T/C (second compound 0.316 µM, first compound 10 µM) was 1% and the viability, T/C (second compound 1 µM, first compound 0.0316 µM) was 85.8%. It also gave a viability, T/C (second compound 1 µM, first compound 0.1 µM) of 89.8%, a viability, T/C (second compound 1 µM, first compound 0.316 µM) of 74.9% and a viability, T/C (second compound 1 µM, first compound 1 µM) of 48.6%. The viability, T/C (second compound 1 µM, first compound 3.16 µM) was 20.7%, the viability, T/C (second compound 1 µM, first compound 10 µM) was 1.92% and the viability, T/C (second compound 3.16 µM, first compound 0.0316 µM) was 91.9%. For the same molecule, the viability, T/C (second compound 3.16 µM, first compound 0.1 µM) was 80.8%, the viability, T/C (second compound 3.16 µM, first compound 0.316 µM) was 70.5% and the viability, T/C (second compound 3.16 µM, first compound 1 µM) was 44%. The viability, T/C (second compound 3.16 µM, first compound 3.16 µM) was 18.5%, the viability, T/C (second compound 3.16 µM, first compound 10 µM) was 1.99% and the viability, T/C (second compound 10 µM, first compound 0.0316 µM) was 88.8%. The viability, T/C (second compound 10 µM, first compound 0.1 µM) was 94.7%, the viability, T/C (second compound 10 µM, first compound 0.316 µM) was 72.7% and the viability, T/C (second compound 10 µM, first compound 1 µM) was 55.2%. The viability, T/C (second compound 10 µM, first compound 3.16 µM) was 26.5% and the viability, T/C (second compound 10 µM, first compound 10 µM) was 3.32%.
